{"source": "patent EP1617853B1", "about": "“ISOLATION OF THE HEPATOPROTECTIVE AGENT ACTEOSIDE FROM COLERBROKEA OPPOSITIFOLIA” (COUNCIL OF SCIENTIFIC AND INDUSTRIAL RESEARCH, priority 2003, dated 2004)", "system": "CCl4 induced hepatic injury", "assay": "Hepatoprotective potential against CCl4 induced hepatic injury (prophylactic)", "format": "in vivo, Rodents", "settings": "for ALP % protection / Albumin % protection / Bilirubin % protection / GOT % protection / GPT % protection / GSH % protection / LP % protection / TG % protection: value within parenthesis", "source_text": "The compound has been bioevaluated for hepatoprotective/antihepatotoxic activity by using a comprehensive study design annexed herewith as Annexure-2. The parameters studied during the bioevaluation to establish the bioefficacy and optimum dose were preferred using the kits (Clonital, Italy and Accurex Biomedical Pvt. Ltd Thane). The list of the parameters is given in Annexure-2 appended herewith. The dose response graphs with respect to different parameters in comparison with the standard drug with silymarin and glycyrrhizin are given in Annexure-3 appended herewith.\nHepatoprotective activity (H) was calculated by the following equation : H = [1-(TC-V/VC-V)]x100 [formula]\nWhere TC, VC, and V are drug + toxin, vehicle + toxin and vehicle treated groups of animals respectively. Table-1: Hepatoprotective potential of Acteoside against CCl4 induced hepatic injury in Rodents Prophylactic).", "key": {"[1]": {"settings": "0.625 mg/kg p.o. + CCl4 1 ml/kg p.o., prophylactic, mean ± SE of six animals"}, "[2]": {"settings": "0.625 mg/kg p.o. + CCl4 1 ml/kg p.o., prophylactic"}, "[3]": {"settings": "1.25 mg/kg p.o. + CCl4 1 ml/kg p.o., prophylactic, mean ± SE of six animals"}, "[4]": {"settings": "1.25 mg/kg p.o. + CCl4 1 ml/kg p.o., prophylactic"}, "[5]": {"settings": "2.5 mg/kg p.o. + CCl4 1 ml/kg p.o., prophylactic, mean ± SE of six animals"}, "[6]": {"settings": "2.5 mg/kg p.o. + CCl4 1 ml/kg p.o., prophylactic"}, "[7]": {"settings": "5.0 mg/kg p.o. + CCl4 1 ml/kg p.o., prophylactic, mean ± SE of six animals"}, "[8]": {"settings": "5.0 mg/kg p.o. + CCl4 1 ml/kg p.o., prophylactic"}, "[9]": {"settings": "Acteoside only (Per-se), 5 mg/kg p.o., no CCl4, mean ± SE of six animals"}, "[10]": {"settings": "100 mg/kg p.o. + CCl4 1 ml/kg p.o., prophylactic, mean ± SE of six animals"}, "[11]": {"settings": "100 mg/kg p.o. + CCl4 1 ml/kg p.o., prophylactic, mean ± SE of six animals, unit = µ mole pyruvate/min/L"}, "[12]": {"settings": "100 mg/kg p.o. + CCl4 1 ml/kg p.o., prophylactic"}}, "data": [{"smiles": "C[C@@H]1O[C@@H](O[C@@H]2[C@@H](O)[C@H](OCCc3ccc(O)c(O)c3)O[C@H](CO)[C@H]2OC(=O)/C=C/c2ccc(O)c(O)c2)[C@H](O)[C@H](O)[C@H]1O", "note": "[Acteoside, β-(3',4'-dihydroxyphenyl) ethyl -O-α-L-rhamnopyranosyl (1→3)-β-D-(4-O-caffeoyl)-glucopyranoside]", "values": [{"measurement": "Hepatic parameters GSH (glutathione)", "setting": "[1]", "value": "4.66±0.28", "unit": "µ mole GSH/g liver"}, {"measurement": "Hepatic parameters LP (lipid peroxidation)", "setting": "[1]", "value": "61.08±3.39", "unit": "n mole MDA/g liver"}, {"measurement": "Serum parameter ALP", "setting": "[1]", "value": "66.80±3.53 µ mole of p-nitrophenol formed /min/L"}, {"measurement": "Serum parameter Albumin", "setting": "[1]", "value": "3.06±0.07", "unit": "g %"}, {"measurement": "Serum parameter Bilirubin", "setting": "[1]", "value": "0.70±0.03", "unit": "mg %"}, {"measurement": "Serum parameter TG", "setting": "[1]", "value": "80.15±3.53", "unit": "mg %"}, {"measurement": "ALP % protection", "setting": "[2]", "value": 21.48, "unit": "%"}, {"measurement": "Albumin % protection", "setting": "[2]", "value": 21.43, "unit": "%"}, {"measurement": "Bilirubin % protection", "setting": "[2]", "value": 12.24, "unit": "%"}, {"measurement": "GOT % protection", "setting": "[2]", "value": 36.64, "unit": "%"}, {"measurement": "GPT % protection", "setting": "[2]", "value": 39.44, "unit": "%"}, {"measurement": "GSH % protection", "setting": "[2]", "value": 27.86, "unit": "%"}, {"measurement": "LP % protection", "setting": "[2]", "value": 43.53, "unit": "%"}, {"measurement": "TG % protection", "setting": "[2]", "value": 17.63, "unit": "%"}, {"measurement": "Hepatic parameters GSH (glutathione)", "setting": "[3]", "value": "5.93±0.32", "unit": "µ mole GSH/g liver"}, {"measurement": "Hepatic parameters LP (lipid peroxidation)", "setting": "[3]", "value": "52.61±2.25", "unit": "n mole MDA/g liver"}, {"measurement": "Serum parameter ALP", "setting": "[3]", "value": "59.10±3.09 µ mole of p-nitrophenol formed /min/L"}, {"measurement": "Serum parameter Albumin", "setting": "[3]", "value": "3.25±0.14", "unit": "g %"}, {"measurement": "Serum parameter Bilirubin", "setting": "[3]", "value": "0.59±0.03", "unit": "mg %"}, {"measurement": "Serum parameter TG", "setting": "[3]", "value": "74.38±3.78", "unit": "mg %"}, {"measurement": "ALP % protection", "setting": "[4]", "value": 38.72, "unit": "%"}, {"measurement": "Albumin % protection", "setting": "[4]", "value": 35.00, "unit": "%"}, {"measurement": "Bilirubin % protection", "setting": "[4]", "value": 34.69, "unit": "%"}, {"measurement": "GOT % protection", "setting": "[4]", "value": 55.43, "unit": "%"}, {"measurement": "GPT % protection", "setting": "[4]", "value": 51.01, "unit": "%"}, {"measurement": "GSH % protection", "setting": "[4]", "value": 52.96, "unit": "%"}, {"measurement": "LP % protection", "setting": "[4]", "value": 59.38, "unit": "%"}, {"measurement": "TG % protection", "setting": "[4]", "value": 27.13, "unit": "%"}, {"measurement": "Hepatic parameters GSH (glutathione)", "setting": "[5]", "value": "6.72±0.28", "unit": "µ mole GSH/g liver"}, {"measurement": "Hepatic parameters LP (lipid peroxidation)", "setting": "[5]", "value": "45.46±2.79", "unit": "n mole MDA/g liver"}, {"measurement": "Serum parameter ALP", "setting": "[5]", "value": "51.20±1.42 µ mole of p-nitrophenol formed /min/L"}, {"measurement": "Serum parameter Albumin", "setting": "[5]", "value": "3.55±0.22", "unit": "g %"}, {"measurement": "Serum parameter Bilirubin", "setting": "[5]", "value": "0.50±0.03", "unit": "mg %"}, {"measurement": "Serum parameter TG", "setting": "[5]", "value": "59.85±1.88", "unit": "mg %"}, {"measurement": "ALP % protection", "setting": "[6]", "value": 56.40, "unit": "%"}, {"measurement": "Albumin % protection", "setting": "[6]", "value": 56.43, "unit": "%"}, {"measurement": "Bilirubin % protection", "setting": "[6]", "value": 53.06, "unit": "%"}, {"measurement": "GOT % protection", "setting": "[6]", "value": 58.92, "unit": "%"}, {"measurement": "GPT % protection", "setting": "[6]", "value": 59.79, "unit": "%"}, {"measurement": "GSH % protection", "setting": "[6]", "value": 68.57, "unit": "%"}, {"measurement": "LP % protection", "setting": "[6]", "value": 72.76, "unit": "%"}, {"measurement": "TG % protection", "setting": "[6]", "value": 51.06, "unit": "%"}, {"measurement": "Hepatic parameters GSH (glutathione)", "setting": "[7]", "value": "7.02±0.46", "unit": "µ mole GSH/g liver"}, {"measurement": "Hepatic parameters LP (lipid peroxidation)", "setting": "[7]", "value": "44.22±1.66", "unit": "n mole MDA/g liver"}, {"measurement": "Serum parameter ALP", "setting": "[7]", "value": "46.37±1.89 µ mole of p-nitrophenol formed /min/L"}, {"measurement": "Serum parameter Albumin", "setting": "[7]", "value": "3.91±0.12", "unit": "g %"}, {"measurement": "Serum parameter Bilirubin", "setting": "[7]", "value": "0.42±0.02", "unit": "mg %"}, {"measurement": "Serum parameter TG", "setting": "[7]", "value": "49.31±1.47", "unit": "mg %"}, {"measurement": "ALP % protection", "setting": "[8]", "value": 67.21, "unit": "%"}, {"measurement": "Albumin % protection", "setting": "[8]", "value": 32.14, "unit": "%"}, {"measurement": "Bilirubin % protection", "setting": "[8]", "value": 69.38, "unit": "%"}, {"measurement": "GOT % protection", "setting": "[8]", "value": 70.49, "unit": "%"}, {"measurement": "GPT % protection", "setting": "[8]", "value": 66.08, "unit": "%"}, {"measurement": "GSH % protection", "setting": "[8]", "value": 74.50, "unit": "%"}, {"measurement": "LP % protection", "setting": "[8]", "value": 75.07, "unit": "%"}, {"measurement": "TG % protection", "setting": "[8]", "value": 68.42, "unit": "%"}, {"measurement": "Hepatic parameters GSH (glutathione)", "setting": "[9]", "value": "8.33±0.33", "unit": "µ mole GSH/g liver"}, {"measurement": "Hepatic parameters LP (lipid peroxidation)", "setting": "[9]", "value": "30.52±1.38", "unit": "n mole MDA/g liver"}, {"measurement": "Serum parameter ALP", "setting": "[9]", "value": "31.87±2.15 µ mole of p-nitrophenol formed /min/L"}, {"measurement": "Serum parameter Albumin", "setting": "[9]", "value": "4.66±0.18", "unit": "g %"}, {"measurement": "Serum parameter Bilirubin", "setting": "[9]", "value": "0.27±0.02", "unit": "mg %"}, {"measurement": "Serum parameter TG", "setting": "[9]", "value": "31.10±2.39", "unit": "mg %"}, {"measurement": "Serum parameter GOT", "setting": "Acteoside only (Per-se), 5 mg/kg p.o., no CCl4, mean ± SE of six animals, unit = µ mole pyruvate/min/L", "value": "94.71±5.29", "unit": "Units"}, {"measurement": "overall percent protection", "setting": "with reference to all the parameters studied, CCl4, dose of 1.25 mg upto 5 mg/kg", "value": "40-80%"}]}, {"smiles": "CC1(C)[C@@H](O[C@H]2O[C@H](C(=O)O)[C@@H](O)[C@H](O)[C@H]2O[C@@H]2O[C@H](C(=O)O)[C@@H](O)[C@H](O)[C@H]2O)CC[C@]2(C)[C@H]3C(=O)C=C4[C@@H]5C[C@@](C)(C(=O)O)CC[C@]5(C)CC[C@@]4(C)[C@]3(C)CC[C@@H]12", "note": "[Glycyrrhizin, reference compound]", "values": [{"measurement": "Hepatic parameters GSH (glutathione)", "setting": "[10]", "value": "5.96 ±0.26", "unit": "µ mole GSH/g liver"}, {"measurement": "Hepatic parameters LP (lipid peroxidation)", "setting": "[10]", "value": "54.37 ± 4.32", "unit": "n mole MDA/g liver"}, {"measurement": "Serum parameter ALP", "setting": "[10]", "value": "55.63 ± 3.52 µ mole of p-nitrophenol formed /min/L"}, {"measurement": "Serum parameter Albumin", "setting": "[10]", "value": "3.30 ± 0.12", "unit": "g %"}, {"measurement": "Serum parameter Bilirubin", "setting": "[10]", "value": "0.55 ± 0.04", "unit": "mg %"}, {"measurement": "Serum parameter TG", "setting": "[10]", "value": "65.31 ± 3.69", "unit": "mg %"}, {"measurement": "Serum parameter GOT", "setting": "[11]", "value": "494.27 ± 36.28", "unit": "Units"}, {"measurement": "Serum parameter GPT", "setting": "[11]", "value": "746.87 ± 49.77", "unit": "Units"}, {"measurement": "ALP % protection", "setting": "[12]", "value": 46.48, "unit": "%"}, {"measurement": "Albumin % protection", "setting": "[12]", "value": 38.57, "unit": "%"}, {"measurement": "Bilirubin % protection", "setting": "[12]", "value": 42.85, "unit": "%"}, {"measurement": "GOT % protection", "setting": "[12]", "value": 56.44, "unit": "%"}, {"measurement": "GPT % protection", "setting": "[12]", "value": 53.87, "unit": "%"}, {"measurement": "GSH % protection", "setting": "[12]", "value": 53.55, "unit": "%"}, {"measurement": "LP % protection", "setting": "[12]", "value": 56.08, "unit": "%"}, {"measurement": "TG % protection", "setting": "[12]", "value": 42.07, "unit": "%"}]}]}
